Tested on: corneal epithelial layer of rabbit cornea blocks
Experiment: Corneal epithelial migration in rabbit cornea tissue culture (method of Nishida et al.)
Format: cell-based, male Japanese white rabbits
Details: for Corneal Epithelial Migration Rate (%): 24 h, 37.5° C., 5% CO2, control set at 100%; for corneal epithelial migration promoting effect (in words): summary of Table 1, rabbit cornea tissue culture
Protocol: Using cornea specimen s collected from male Japanese white rabbits, the corneal epithelial migration length was used as an index in studying the cornea tissue culturing system according to the method of Nishida, et al. (J. Cell Biol., 97, 1653-1657 (1983)). Cornea blocks (6 specimens for each group) cut from rabbit cornea pieces were cultured in a culture solution (TCM-199) containing an invention compound at 37.5° C. and 5% CO2 for 24 h. After culturing, the cornea blocks were fixed in an ethanol/glacial acetic acid (95:5 by volume) mixture solution, followed by embedding with paraffin to form slices. After removal of the paraffin, the slices were subjected to hematoxylin-eosin staining, and the length of migration of the corneal epithelial layer was observed using a microscope. As a control, culturing was also performed using a culture solution not containing an invention compound.

[1] = compound 10 μM in culture solution (TCM-199)
[2] = compound 100 μM in culture solution (TCM-199)

| Structure (SMILES) | Corneal Epithelial Migration Rate (%) [1] [%] | corneal epithelial migration promoting effect (in words) | Corneal Epithelial Migration Rate (%) [2] [%] |
| --- | --- | --- | --- |
| Nc1ncnc2c1ncn2[C@@H]1O[C@H](COP(=O)([O-])OP(=O)([O-])O)[C@@H](O)[C@H]1O.[Na+].[Na+] [ADP-Na, adenosine 5′-diphosphate disodium] | 116.1 | significant corneal epithelial migration promoting effects | – |
| Nc1ncnc2c1ncn2[C@@H]1O[C@H](COP(=O)([O-])OP(=O)([O-])OP(=O)([O-])O)[C@@H](O)[C@H]1O.[Na+].[Na+].[Na+] [ATP-Na, adenosine 5′-triphosphate trisodium] | 119.3 | significant corneal epithelial migration promoting effects | – |
| O=c1ccn([C@@H]2O[C@H](COP(=O)([O-])OP(=O)([O-])OP(=O)([O-])OP(=O)([O-])OC[C@H]3O[C@@H](n4ccc(=O)[nH]c4=O)[C@H](O)[C@@H]3O)[C@@H](O)[C@H]2O)c(=O)[nH]1.[Na+].[Na+].[Na+].[Na+] [DUTP-Na, P^1, P^4-di(uridine-5′)tetraphosphate tetrasodium] | – | significant corneal epithelial migration promoting effects | 118.9 |
| O=c1ccn([C@@H]2O[C@H](COP(=O)([O-])OP(=O)([O-])O)[C@@H](O)[C@H]2O)c(=O)[nH]1.[Na+].[Na+] [UDP-Na, uridine 5′-diphosphate di-sodium] | – | significant corneal epithelial migration promoting effects | 115.3 |
| O=c1ccn([C@@H]2O[C@H](COP(=O)([O-])OP(=O)([O-])OP(=O)([O-])O)[C@@H](O)[C@H]2O)c(=O)[nH]1.[Na+].[Na+].[Na+] [UTP-Na, uridine 5′-triphosphate trisodium] | – | significant corneal epithelial migration promoting effects | 123.1 |
